# In PubChem BioAssay (NCI):
# Several values for one entry are separate records, joined by “and”; a condition that tells them apart may be missing. Identical values can stand only once.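 Cultured in 96-well plates, cells were exposed to test compound for 48 hours across five concentrations. At the GI50, growth is halved. TGI: total growth inhibition.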
# Experiments:
# Experiment in all cases: NCI-60 cell line screen, 48 h
# CAKI-1 renal = tested on: CAKI-1 renal
# EKVX NSCLC = tested on: EKVX NSCLC
# HCT-15 colon = tested on: HCT-15 colon
# LOX IMVI melanoma = tested on: LOX IMVI melanoma
# OVCAR-8 ovarian = tested on: OVCAR-8 ovarian
# SK-MEL-28 melanoma = tested on: SK-MEL-28 melanoma
# SN12C renal = tested on: SN12C renal
# SNB-19 CNS = tested on: SNB-19 CNS
# SR leukemia = tested on: SR leukemia
# UO-31 renal = tested on: UO-31 renal
Compound,GI50 (CAKI-1 renal),TGI (CAKI-1 renal),GI50 (EKVX NSCLC),TGI (EKVX NSCLC),GI50 (HCT-15 colon),TGI (HCT-15 colon),GI50 (LOX IMVI melanoma),TGI (LOX IMVI melanoma),GI50 (OVCAR-8 ovarian),TGI (OVCAR-8 ovarian),GI50 (SK-MEL-28 melanoma),TGI (SK-MEL-28 melanoma),GI50 (SN12C renal),TGI (SN12C renal),GI50 (SNB-19 CNS),TGI (SNB-19 CNS),GI50 (SR leukemia),TGI (SR leukemia),GI50 (UO-31 renal),TGI (UO-31 renal)
CCCOC(=O)N[C@H]1CCc2c(Br)c(OC)c(OC)c(OC)c2-c2ccc(SC)c(=O)cc21,0.0339 µM,19.2 µM,0.0474 µM,> 100 µM,0.0218 µM,> 36 µM,< 0.0177 µM,11.5 µM,0.0438 µM,> 100 µM,2.83 µM,23.2 µM,0.0437 µM,17.3 µM,0.0425 µM,> 100 µM,< 0.01 µM,> 40.5 µM,0.103 µM,21.9 µM
O=C(c1ccccc1)c1ccc(-c2ccc(O)cc2)cc1,2.35 µM,9.84 µM,4.42 µM,41.5 µM,5 µM,27.7 µM,11.1 µM,28.8 µM,12.4 µM,68.9 µM,10.4 µM,> 61.7 µM,20.2 µM,> 100 µM,6.01 µM,> 100 µM,3 µM,18.1 µM,4.04 µM,50.3 µM
COc1ccc2c(c1)O/C(=C\c1cccc(OCC(=O)Nc3nc4ccccc4s3)c1)C2=O,3.04 µM,> 100 µM,29 µM,> 100 µM,13.9 µM,> 100 µM,0.328 µM,1.05 µM,12.6 µM,> 100 µM,> 72 µM,> 100 µM,2.82 µM,> 100 µM,> 57.8 µM,> 100 µM,0.749 µM,2.42 µM,1.53 µM,3 µM
CC1(C)CCC(S(=O)(=O)c2ccc3c(c2)/C(=N\O)c2cc(S(=O)(=O)N4CCC(O)(c5cccc(C(F)(F)F)c5)CC4)ccc2-3)CC1,0.0752 µM,1.14 µM,0.0329 µM,0.408 µM,0.0694 µM,4.52 µM,0.0183 µM,0.0381 µM,0.034 µM,0.112 µM,0.0505 µM,0.446 µM,0.0612 µM,2.2 µM,0.0673 µM,0.215 µM,0.0174 µM,0.0443 µM,1.67 µM,5.49 µM
CN(C(=O)c1ccc(F)cc1C(F)(F)F)C1CCN(c2nnc(-c3ccnn3C)c3ccccc23)CC1,31.9 µM,> 100 µM,19.4 µM,> 100 µM,39.9 µM,> 100 µM,61.5 µM,> 100 µM,30.5 µM,> 100 µM,> 65.6 µM,> 100 µM,51 µM,> 100 µM,51.7 µM,> 100 µM,50.9 µM,> 100 µM,22 µM,> 100 µM
O=C(CC12CC3CC(CC(C3)C1)C2)NCCOCCOCCNC(=O)c1cc2c(o1)C(=O)c1ccccc1C2=O,1.46 µM,3.86 µM,1.84 µM,3.53 µM,0.867 µM,2.39 µM,0.526 µM,2.03 µM,0.813 µM,11.6 µM,1.58 µM,3.09 µM,0.595 µM,1.87 µM,0.841 µM,3.11 µM,1.08 µM,6.55 µM,1.5 µM,3.09 µM
O=S(=O)(Nc1ccc(-c2nc(-c3cccc(OCCN4CCOCC4)c3)c(-c3ccnc(Br)c3)[nH]2)cc1)c1ccccc1,2.56 µM,14.5 µM,3.4 µM,> 100 µM,1.74 µM,6.79 µM,1.62 µM,3.42 µM,3.27 µM,> 100 µM,2.77 µM,9.79 µM,5.37 µM,> 100 µM,6.07 µM,> 100 µM,2.62 µM,> 100 µM,2.92 µM,> 100 µM
Cn1ncc2c(Nc3ccc(Br)cc3)nc(Nc3ccc(Br)cc3)nc21,1.87 µM,4.49 µM,2.48 µM,9.73 µM,2.2 µM,5.62 µM,1.77 µM,3.36 µM,4.15 µM,63.5 µM,5.09 µM,17 µM,3.28 µM,12.9 µM,6.42 µM,18.9 µM,1.69 µM,5.21 µM,3.28 µM,29 µM
CS(=O)(=O)c1nccc(-c2c(-c3cccc(OCc4ccc(F)cc4)c3)nc3sccn23)n1,3.41 µM,> 100 µM,26.4 µM,> 100 µM,10.9 µM,> 100 µM,4.7 µM,> 100 µM,59.9 µM,> 100 µM,23.8 µM,> 100 µM,> 56.6 µM,> 100 µM,26 µM,> 96.7 µM,5.45 µM,> 100 µM,2.19 µM,5.57 µM
Cc1c(Cl)cccc1NC(=O)CC1Sc2ccccc2NC1=O (stereo not given),–,77.4 µM and > 100 µM,–,> 100 µM,8.53 µM and 41.9 µM,> 100 µM,–,83.8 µM and > 100 µM,–,33.3 µM and 43.3 µM,27.4 µM and 55 µM,> 100 µM,–,65.6 µM and > 100 µM,–,52.8 µM and 42.5 µM,–,56.7 µM,–,49.2 µM and 54.8 µM
O=S(=O)(c1cccc(C(F)(F)F)c1)N1c2ccccc2-n2cccc2C1c1cccnc1 (stereo not given),–,> 100 µM,–,> 100 µM,–,> 91.4 µM,–,> 68.7 µM,–,> 100 µM,–,> 59 µM,–,> 62.3 µM,–,> 72.9 µM,–,71.9 µM,–,34.3 µM
CN(C)CCNC(=O)c1ccc2ccc3cccnc3c2n1,–,> 85.5 µM,–,48.3 µM,–,63.5 µM,–,49.8 µM,–,> 100 µM,–,> 61.6 µM,–,> 92.9 µM,–,> 93 µM,–,30.7 µM,–,47.9 µM
CCCC[C@@H]1NC(=O)[C@H](CCCCN)NC(=O)[C@H](CCCNC(=N)N)NC(=O)[C@H](CC(C)C)NC(=O)[C@@H](NC(=O)[C@H](Cc2cccc(Cl)c2)NC(=O)[C@@H]2CCCN2C(=O)[C@@H](NC(C)=O)C(C)C)CCSSC[C@@H](C(=O)N[C@@H](CCCCN)C(=O)N2CCC[C@H]2C(=O)N2CCC[C@H]2C(=O)N[C@@H](CCC(=O)O)C(N)=O)NC(=O)[C@H](Cc2ccccc2)NC(=O)[C@H](CO)NC(=O)[C@H](C)NC(=O)[C@@H]2CCCN2C1=O,> 50 µM,> 50 µM,> 50 µM,> 50 µM,> 50 µM,> 50 µM,> 50 µM,> 50 µM,> 50 µM,> 50 µM,> 50 µM,> 50 µM,> 50 µM,> 50 µM,> 50 µM,> 50 µM,> 50 µM,> 50 µM,> 50 µM,> 50 µM
CC1=CC[C@@H]2[C@@H](CC[C@@]2(C)O)C(C)(C)[C@H]1CC[C@@H]1[C@@]2(C)CCC(=O)C(C)(C)O[C@@H]2CC[C@]1(C)O,–,96.6 µM,–,> 100 µM,–,34.3 µM,–,33.3 µM,–,62.1 µM,–,> 100 µM,–,42.3 µM,–,> 100 µM,–,59.4 µM,–,49 µM
OCCN1CCN(CCCN2c3ccccc3Sc3ccc(C(F)(F)F)cc32)CC1,2.61 µM and 11.3 µM and 6.93 µM,9.5 µM and 25.7 µM and 21.6 µM,5.18 µM and 11.6 µM and 10.4 µM,12.7 µM and 29.2 µM and 30.4 µM,1.97 µM and 4.22 µM and 3.7 µM,6.88 µM and 18.3 µM and 15 µM,0.898 µM and 5.18 µM and 3.4 µM,2 µM and 18.2 µM and 12.7 µM,4.46 µM and 13.6 µM and 14 µM,11.4 µM and 28.5 µM and 28.8 µM,0.91 µM and 2.48 µM and 2.2 µM,1.66 µM and 7.16 µM and 5.98 µM,4.49 µM and 11.4 µM and 7.83 µM,11.4 µM and 26.7 µM and 21.8 µM,2.08 µM and 14 µM and 12.3 µM,8.34 µM and 30.8 µM and 27.3 µM,2.05 µM and 3.56 µM and 1.9 µM,6.46 µM and 13.2 µM and 5.51 µM,1.96 µM and 6.09 µM and 4.53 µM,8.84 µM and 21.2 µM and 20 µM
C[C@@H]1O[C@@H](O[C@H]2C[C@@H](O)[C@]3(CO)C4C(CC[C@]3(O)C2)[C@@]2(O)CC[C@H](C3=CC(=O)OC3)[C@@]2(C)C[C@H]4O)[C@H](O)[C@H](O)[C@H]1O (stereo not given in full),0.0166 µM,0.0679 µM,0.0151 µM,0.0518 µM,0.0372 µM,0.114 µM,0.0233 µM,0.0882 µM,0.0189 µM,0.0691 µM,0.0881 µM,0.164 µM,0.0178 µM,0.0844 µM,0.0605 µM,0.125 µM,0.0105 µM,0.0317 µM,0.0165 µM,0.0618 µM
Cc1cccc(C)c1NC(=O)CCC(=O)NNC(=O)c1cc(O)c2ccccc2c1,–,> 100 µM,–,> 100 µM,–,> 100 µM,–,> 100 µM,–,87.4 µM,–,> 100 µM,–,> 100 µM,–,> 100 µM,–,> 100 µM,–,> 100 µM
COC1/C=C/O[C@@]2(C)Oc3c(C)c(O)c4c(O)c(cc(O)c4c3C2=O)NC(=O)/C(C)=C\C=C\[C@H](C)C(O)[C@@H](C)[C@@H](O)[C@@H](C)[C@H](OC(C)=O)[C@@H]1C (stereo not given in full),16.9 µM,30.8 µM and 98.6 µM,14.2 µM and 58.6 µM,27.8 µM and 136 µM,20.9 µM,35.1 µM and 49.8 µM,–,26.1 µM and 29.5 µM,14.9 µM,29.8 µM and 57.4 µM,–,52 µM and 57.3 µM,11.9 µM,24.6 µM and 33.9 µM,51.8 µM,220 µM,3.92 µM,20.6 µM and 42.7 µM,12 µM,24.4 µM and 96.9 µM
